Values quoted from earlier work as cited in patent publication US20090202995A1, “MOLECULAR CARDIOTOXICOLOGY MODELING” (priority 2005, published 2009).
Where two headings read alike, the source gives them in different places.

Assays:
heart tissue [1] = conditions: known designation used to train the model, at the dose, time and route of Table 3
heart tissue [2] = tested on: heart tissue
heart tissue [3] = conditions: known designation used to train the model, at the dose, time and route of Table 3; remark: listed apart in the source
heart tissue [4] = conditions: known designation used to train the model, at the dose, time and route of Table 3; remark: listed apart in the source
heart tissue [5] = tested on: heart tissue; remark: listed apart in the source
heart tissue [6] = tested on: heart tissue; remark: listed apart in the source
[7] = known designation used to train the model, at the dose, time and route of Table 3
[8] = known tox (1) / non-tox (−1) designation used to train the model, at the dose, time and route of Table 3

Compound | Heart Failure (heart tissue [1]) | Myocardial Necrosis (heart tissue [2]; [7]) | Vasculature Agent (heart tissue [3]) | Andrenergic Agonist (heart tissue [4]) | General (heart tissue [5]; [8]) | Arrhythmia (heart tissue [6]; [7]) | Myocardial Necrosis (heart tissue [2]; rat, in vivo) | General (heart tissue [5]; rat, in vivo) | Arrhythmia (heart tissue [6]; rat, in vivo)
Nc1nc2c(ncn2COCCO)c(=O)[nH]1 [Acyclovir] | −1 | −1 | −1 | −1 | −1 | −1 |  |  | 
COc1cccc2c1C(=O)c1c(O)c3c(c(O)c1C2=O)C[C@@](O)(C(=O)CO)C[C@@H]3O[C@H]1C[C@H](N)[C@H](O)[C@H](C)O1 [Adriamycin] | 1 | 1 | −1 | −1 | 1 | −1 |  |  | 
ClC(Cl)(Cl)Cl [CCl4] | −1 | −1 | −1 | −1 | −1 | −1 |  |  | 
N.N.O=C([O-])C1(C(=O)[O-])CCC1.[Pt+2] [Carboplatin] | −1 | −1 | −1 | −1 | −1 | −1 |  |  | 
N.N.[Cl][Pt][Cl] [Cisplatin] | −1 | 1 | −1 | −1 | 1 | 1 |  |  | 
CC(C)(C)NCC(O)c1cc(Cl)c(N)c(Cl)c1 (stereo not shown) [Clenbuterol] |  | 1 | 1 | 1 | 1 | 1 |  |  | 
O=P1(N(CCCl)CCCl)NCCCO1 (stereo not shown) [Cyclophosphamide] | 1 | −1 | −1 | −1 | 1 | −1 |  |  | 
O=C1CN(/N=C/c2ccc(-c3ccc([N+](=O)[O-])cc3)o2)C(O)=N1 [Dantrolene] | 1 | −1 |  | −1 | 1 | 1 |  |  | 
NCCc1ccc(O)c(O)c1 [Dopamine] |  | −1 | −1 | 1 | 1 | 1 |  |  | 
CNC[C@H](O)c1ccc(O)c(O)c1 [Epinephrine] | −1 | 1 | −1 | 1 | 1 | 1 |  |  | 
COc1cccc2c1C(=O)c1c(O)c3c(c(O)c1C2=O)C[C@@](O)(C(=O)CO)C[C@@H]3O[C@H]1C[C@H](N)[C@@H](O)[C@H](C)O1 [Epirubicin] | 1 | −1 | −1 | −1 | 1 | 1 |  |  | 
NC(N)=Nc1nc(CSCCC(N)=NS(N)(=O)=O)cs1 [Famotidine] | −1 | −1 | −1 | −1 | 1 | 1 |  |  | 
NNc1nncc2ccccc12 [Hydralazine] | −1 | 1 | 1 | −1 | 1 | 1 |  |  | 
CC(C)NCC(O)c1ccc(O)c(O)c1 (stereo not shown) [Isoproterenol] |  | 1 |  | 1 | 1 | 1 |  |  | 
Nc1cc(N2CCCCC2)nc(N)[n+]1[O-] [Minoxidil] | 1 | 1 | 1 | −1 | 1 | 1 |  |  | 
C[C@H]1C(=O)O[C@@H]2CCN3CC=C(COC(=O)[C@](C)(O)[C@]1(C)O)[C@H]23 [Monocrotaline] |  |  |  |  |  |  | −1 | 1 | −1
NC[C@H](O)c1ccc(O)c(O)c1 [Norephinephrine] | −1 | 1 |  | 1 | 1 | 1 |  |  | 
Fc1ccc([C@@H]2CCNC[C@H]2COc2ccc3c(c2)OCO3)cc1 [Paroxetine] |  | −1 |  |  | 1 | 1 |  |  | 
N=C(N)c1ccc(OCCCCCOc2ccc(C(=N)N)cc2)cc1 [Pentamidine] | −1 | −1 |  |  | 1 | 1 |  |  | 
CC(N)C(O)c1ccccc1 (stereo not shown) [Phenylpropanolamine] | −1 |  |  |  | 1 | 1 |  |  | 
CN(CCOc1ccc(CC2SC(=O)NC2=O)cc1)c1ccccn1 (stereo not shown) [Rosiglitazone] | 1 |  |  |  | 1 |  |  |  | 
Cn1nnc2c(C(N)=O)ncn2c1=O [Temozolomide] | −1 | −1 |  |  | −1 | −1 |  |  | 
